Patent US12617779B2, “Self degradation-type CDK9 inhibitor prodrug and liposome encapsulating same” (Sumitomo Pharma Co., Ltd., priority 2021, dated 2026)

How the values were obtained:
[1] = Evaluation of conversion rate to active form in BALB/c mouse plasma (Experimental Example 3); type: in vitro ADME; conditions: BALB/c, mouse, 0.2 μmol/L
Method: (§1) For Example 1, Example 2, Example 3, Example 4, Example 5, Example 6, Comparative Example 3, Comparative Example 4, Comparative Example 6, Comparative Example 7, Comparative Example 8, Comparative Example 9, Comparative Example 10 and Comparative Example 12, the attrition rate of the test compound and the conversion rate of the test compound to Alvocidib in human plasma and BALB/c mouse plasma were calculated by the following method.
(§2) The test compound was added to human plasma or BALB/c mouse plasma at a concentration of 0.2 μmol/L, and incubated at 37° C. The peak areas of the test compound and Alvocidib in the sample were determined by LC-MS/MS after 0, 30 and 60 minutes for Example 1, Example 2, Example 3, Example 4, Example 5 and Example 6, and after 0, 60 and 120 minutes for Comparative Example 3, Comparative Example 4, Comparative Example 6, Comparative Example 7, Comparative Example 8, Comparative Example 9, Comparative Example 10 and Comparative Example 12, and the attrition rate of the test compound and the conversion rate of the test compound to Alvocidib were calculated by the following formula. Attrition rate of test compound (%):(peak area of test compound in sample/peak area of test compound in sample after 0 minute)×100 Conversion rate to Alvocidib (%):(peak area of Alvocidib in sample/peak area of Alvocidib in reaction solution containing 0.2 μmol/L Alvocidib)×100
(§3) The measurement conditions for LC-MS/MS are as follows. • HPLC: Prominence system (Shimadzu Corporation) • MS/MS: • Example 1, Example 2, Example 3, Example 4, Example 5, Example 6, Comparative Example 8 (mouse), Comparative Example 10 (mouse) and Comparative Example 12 (mouse) • QTRAP5500 (SCIEX) • Comparative Example 6, Comparative Example 7, Comparative Example 8 (human), Comparative Example 9, Comparative Example 10 (human) and Comparative Example 12 (human) • 4000 QTRAP (SCIEX) • column: • other than Example 3 and Example 4 • Cadenza CD-C18, 3 μm, 50×2 mm (Imtakt Corporation) • Example 3 and Example 4 • Kinetex C8, 2.6 μm, 50×2.1 mm (Phenomenex) • column temperature: 40° C. • mobile phase: • A: water containing 0.1% formic acid • B: acetonitrile containing 0.1% formic acid • A/B (min): • Example 1, Example 2, Example 5, Example 6, Comparative Example 8 (mouse), Comparative Example 10 (mouse) and Comparative Example 12 (mouse) • 90/10(0)→40/60(5.0)→10/90(5.1)→10/90(6.5)→90/10(6.6)→90/10(8.0) • Example 3 and Example 4 • 86/14(0)→86/14(3.5)→10/90(5.5)→10/90(6.5)→86/14(6.6)→86/14(9.5) • Comparative Example 6, Comparative Example 7, Comparative Example 8 (human), Comparative Example 9, Comparative Example 10 (human) and Comparative Example 12 (human) • 90/10(0)→10/90(2.5)→10/90(3.5)→90/10(3.6)→90/10(5.0) • flow rate: 0.4 mL/min • detection: ESI (positive mode) • injection: 1 to 5 μL

[2] = Evaluation of conversion rate to active form in human plasma (Experimental Example 3); type: in vitro ADME; conditions: human, 0.2 μmol/L
Method: as §1, §2, §3

[3] = Evaluation of conversion rate to active form in buffer solution (Experimental Example 1); type: physicochemical
Method: For Examples 1 to 16 and Comparative Examples 1 to 14, the attrition rate of the test compound and the conversion rate of the test compound to Alvocidib in a buffer solution were calculated by the following method.
Examples 1 to 16 and Comparative Examples 1 to 14 were each left in buffer solutions adjusted to pH 5.0, 5.5, 6.0, 6.5, 7.0 and 7.4, respectively, at a concentration of 25 umol/L at 37° C. After 0, 0.5, 1, 2 and 3 hours, the residual rates of the compounds of Examples […] and the production rate of Alvocidib were determined by HPLC.
The buffer solutions used at each pH are as follows. • pH 5.0: 50 mM citrate buffer solution (pH 5.0) • pH 5.5: 50 mM citrate buffer solution (pH 5.5) • pH 6.0: 50 mM phosphate buffer solution (pH 6.0) • pH 6.5: 50 mM phosphate buffer solution (pH 6.5) • pH 7.0: 50 mM phosphate buffer solution (pH 7.0) • pH 7.4: 50 mM phosphate buffer solution (pH 7.4)
The measurement conditions for HPLC are as follows.

With CCNC(=O)O[C@@H]1CN(C)CC[C@@H]1c1c(O)cc(O)c2c(=O)cc(-c3ccccc3Cl)oc12 [Comparative Example 4, reference compound] the “Production rate (%) of Alvocidib” value ([1]; 0 min) was 2%, the “Residual rate (%) of test compound” value ([1]; 0 min) was 100% and the “Production rate (%) of Alvocidib” value ([1]; 60 min) was 3%. For the same compound, the “Residual rate (%) of test compound” value ([1]; 60 min) was 94%, the “Production rate (%) of Alvocidib” value ([1]; 120 min) was 3% and the “Residual rate (%) of test compound” value ([1]; 120 min) was 92%. The “Production rate (%) of Alvocidib” value ([2]; 0 min) was 2%, the “Residual rate (%) of test compound” value ([2]; 0 min) was 100% and the “Production rate (%) of Alvocidib” value ([2]; 60 min) was 3%. The “Residual rate (%) of test compound” value ([2]; 60 min) was 101%, the “Production rate (%) of Alvocidib” value ([2]; 120 min) was 3% and the “Residual rate (%) of test compound” value ([2]; 120 min) was 134%. For the same compound, the “Production rate of Alvocidib” value ([3]; pH5.0, 0 hr) was 1.7%, the Residual rate ([3]; pH5.0, 0 hr) was 97.7% and the “Production rate of Alvocidib” value ([3]; pH5.0, 0.5 hr) was 1.8%. The Residual rate ([3]; pH5.0, 0.5 hr) was 97.8%, the “Production rate of Alvocidib” value ([3]; pH5.0, 1 hr) was 1.7% and the Residual rate ([3]; pH5.0, 1 hr) was 97.8%. The “Production rate of Alvocidib” value ([3]; pH5.0, 2 hr) was 1.8%, the Residual rate ([3]; pH5.0, 2 hr) was 97.7% and the “Production rate of Alvocidib” value ([3]; pH5.0, 3 hr) was 1.8%. For the same compound, the Residual rate ([3]; pH5.0, 3 hr) was 97.7%, the “Production rate of Alvocidib” value ([3]; pH5.5, 0 hr) was 1.8% and the Residual rate ([3]; pH5.5, 0 hr) was 97.8%. The “Production rate of Alvocidib” value ([3]; pH5.5, 0.5 hr) was 1.8%, the Residual rate ([3]; pH5.5, 0.5 hr) was 97.6% and the “Production rate of Alvocidib” value ([3]; pH5.5, 1 hr) was 1.8%. The Residual rate ([3]; pH5.5, 1 hr) was 97.7%, the “Production rate of Alvocidib” value ([3]; pH5.5, 2 hr) was 1.8% and the Residual rate ([3]; pH5.5, 2 hr) was 97.8%. The “Production rate of Alvocidib” value ([3]; pH5.5, 3 hr) was 1.8%, the Residual rate ([3]; pH5.5, 3 hr) was 97.6% and the “Production rate of Alvocidib” value ([3]; pH6.0, 0 hr) was 1.8%. The Residual rate ([3]; pH6.0, 0 hr) was 97.8%, the “Production rate of Alvocidib” value ([3]; pH6.0, 0.5 hr) was 1.8% and the Residual rate ([3]; pH6.0, 0.5 hr) was 97.7%. The “Production rate of Alvocidib” value ([3]; pH6.0, 1 hr) was 1.7%, the Residual rate ([3]; pH6.0, 1 hr) was 97.7% and the “Production rate of Alvocidib” value ([3]; pH6.0, 2 hr) was 1.8%. The Residual rate ([3]; pH6.0, 2 hr) was 97.7%, the “Production rate of Alvocidib” value ([3]; pH6.0, 3 hr) was 1.8% and the Residual rate ([3]; pH6.0, 3 hr) was 97.7%. For the same compound, the “Production rate of Alvocidib” value ([3]; pH6.5, 0 hr) was 1.8%, the Residual rate ([3]; pH6.5, 0 hr) was 97.7% and the “Production rate of Alvocidib” value ([3]; pH6.5, 0.5 hr) was 1.8%. For the same compound, the Residual rate ([3]; pH6.5, 0.5 hr) was 97.6%, the “Production rate of Alvocidib” value ([3]; pH6.5, 1 hr) was 1.8% and the Residual rate ([3]; pH6.5, 1 hr) was 97.7%. The “Production rate of Alvocidib” value ([3]; pH6.5, 2 hr) was 1.8%, the Residual rate ([3]; pH6.5, 2 hr) was 97.8% and the “Production rate of Alvocidib” value ([3]; pH6.5, 3 hr) was 1.8%. The Residual rate ([3]; pH6.5, 3 hr) was 97.7%, the “Production rate of Alvocidib” value ([3]; pH7.0, 0 hr) was 1.8% and the Residual rate ([3]; pH7.0, 0 hr) was 97.7%. The “Production rate of Alvocidib” value ([3]; pH7.0, 0.5 hr) was 1.8%, the Residual rate ([3]; pH7.0, 0.5 hr) was 97.7% and the “Production rate of Alvocidib” value ([3]; pH7.0, 1 hr) was 1.8%. For the same compound, the Residual rate ([3]; pH7.0, 1 hr) was 97.6%, the “Production rate of Alvocidib” value ([3]; pH7.0, 2 hr) was 1.8% and the Residual rate ([3]; pH7.0, 2 hr) was 97.6%. For the same compound, the “Production rate of Alvocidib” value ([3]; pH7.0, 3 hr) was 1.8%, the Residual rate ([3]; pH7.0, 3 hr) was 97.7% and the “Production rate of Alvocidib” value ([3]; pH7.4, 0 hr) was 1.8%. For the same compound, the Residual rate ([3]; pH7.4, 0 hr) was 97.7%, the “Conversion to Alvocidib at pH 7.4” value ([3]; pH 7.4, 37° C., up to 3 hours) was “slowly converted to Alvocidib” and the “Production rate of Alvocidib” value ([3]; pH7.4, 0.5 hr) was 1.8%. For the same compound, the Residual rate ([3]; pH7.4, 0.5 hr) was 97.6%, the “Production rate of Alvocidib” value ([3]; pH7.4, 1 hr) was 1.7% and the Residual rate ([3]; pH7.4, 1 hr) was 97.7%. The “Production rate of Alvocidib” value ([3]; pH7.4, 2 hr) was 1.8%, the Residual rate ([3]; pH7.4, 2 hr) was 97.7% and the “Production rate of Alvocidib” value ([3]; pH7.4, 3 hr) was 1.8%. The Residual rate ([3]; pH7.4, 3 hr) was 97.8%.
